# Measurements: patent US8252931B2, “Thiazolo[5,4-B]pyridine glucokinase activators” (Novartis AG, priority 2005, dated 2012)
# Molecular target: T1, recombinant GST-GK (Homo sapiens, UniProt P35557)
# T1 sequence (P35557 1-465): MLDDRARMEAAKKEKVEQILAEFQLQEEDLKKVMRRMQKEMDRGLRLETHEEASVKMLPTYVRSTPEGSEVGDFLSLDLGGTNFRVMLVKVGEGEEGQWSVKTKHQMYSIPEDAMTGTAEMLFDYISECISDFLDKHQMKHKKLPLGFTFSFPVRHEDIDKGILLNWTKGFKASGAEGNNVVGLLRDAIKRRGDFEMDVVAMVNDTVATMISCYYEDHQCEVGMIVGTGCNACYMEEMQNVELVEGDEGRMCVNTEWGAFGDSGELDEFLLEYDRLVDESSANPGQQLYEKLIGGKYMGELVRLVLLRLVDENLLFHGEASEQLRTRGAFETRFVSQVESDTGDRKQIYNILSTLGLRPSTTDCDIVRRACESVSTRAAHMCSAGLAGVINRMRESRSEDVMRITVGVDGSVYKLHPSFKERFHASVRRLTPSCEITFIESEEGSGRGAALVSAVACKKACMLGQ
# Experiment: activation of recombinant GST-GK in vitro (primary enzyme assay)
# Assay type: biochemical
# Details: concentration of compound that produces a 50% increase in the activity of GK; read-out: EC50 in primary enzyme assay
# Description: For example, the glucokinase activation in vitro may be determined by measuring the activation of recombinant GST-GK by a compound of the present invention in the absence or the presence of GKRP, a 68,000 Da protein inhibitor of GK. In these assays, formation of glucose-6-phosphate is coupled directly to the formation of thio-NADH. GST-GK catalyzes the reaction of glucose and Mg-ATP to produce glucose-6-phosphate and ADP. Glucose-6-phosphate dehydrogenase (G6PDH) reduces thionicotinamide (thio-NAD) to thio-NADH. The assay measures the formation of thio-NADH at […].
# The basic GK assay components are as follows: 25 mM HEPES (pH 7.1), 25 mM KCl, 2.5 mM MgCl2, 1 mM ATP (Sigma A-5394), 1 mM DTT, 1 mM thio-NAD (Sigma T-7375), 80 units/mL G6PDH (Sigma G-5885), 10 mM glucose and 110 nM GST-GK. For assessing reversal of GK inhibition by GKRP, 20 μM Fructose-6-phosphate (F-6-P) and 370 nM recombinant GKRP are added to these assay components. Fructose-1-phosphate (F-1-P) at 1 μM is used as a control in the GK/GKRP assay. F-1-P reverses inhibition of GST-GK by GKRP.
# The assay is done in standard, 96-well, round-bottom plates (Corning) and the total assay volume is 25 μL. Test compounds are serially diluted into 100% DMSO and 0.5 μL of diluted compound in 100% DMSO is added to the assay plate. Assay reagents (24.5 μL) are added using a Zymark robotic platform. Buffer, containing HEPES, MgCl2, KCl, thio-NAD, G6PDH, glucose and GST-GK, are added (5 μL) using the Zymark 8-channel hand pipet. For the GK/GKRP assay, GKRP and F-6-P are also included. The reaction is then initiated by adding 19.5 μL of buffer containing HEPES, MgCl2, KCl, DTT and ATP using the Zymark Reagent Addition Station/Reagent Addition Module. The plates are read kinetically over 10 min at 25° C. using a SpectraMax Plus microplate spectrophotometer (Molecular Devices, Sunnyvale, Calif.) to monitor the increase in optical density at 405 nm. The GK activity in wells containing test compounds is compared with activity in DMSO control wells. The concentration of compound that produces a 50% increase in the activity of GK is calculated and expressed as EC50.
row,Structure (SMILES),EC50
1,"COc1ccc2nc(NC(=O)[C@H](CC3CCCC3)c3ccc(S(=O)(=O)N(CCC(=O)O)Cc4ccccc4)cc3)sc2n1 [Example 1, 3-(Benzyl-{4-[(R)-2-cyclopentyl-1-(5-methoxy-thiazolo[5,4-b]pyridin-2-ylcarbamoyl)-ethyl]-benzenesulfonyl}-amino)-propionic acid]",270 nM
2,"COCCN(CCC(=O)O)S(=O)(=O)c1ccc(C(CC2CCCC2)C(=O)Nc2nncs2)cc1 (stereo not drawn) [Example 2, 3-[{4-[2-Cyclopentyl-1-([1,3,4]thiadiazol-2-ylcarbamoyl)-ethyl]-benzene-sulfonyl}-(2-methoxy-ethyl)-amino]-propionic acid]",50000 nM
3,"COc1ccc2nc(NC(=O)[C@H](CC3CCCC3)c3ccc(S(=O)(=O)N(CCC(=O)O)Cc4cc5ccccc5o4)cc3)sc2n1 [Example 3, 3-(Benzofuran-2-ylmethyl-{4-[(R)-2-cyclopentyl-1-(5-methoxy-thiazolo[5,4-b]pyridin-2-ylcarbamoyl)-ethyl]-benzenesulfonyl}-amino)-propionic acid]",220 nM
4,"COc1ccc2nc(NC(=O)C(CC3CCCC3)c3ccc(S(=O)(=O)N(CC(=O)O)Cc4ccco4)cc3)sc2n1 (stereo not drawn) [Example 4-9, ({4-[2-Cyclopentyl-1-(5-methoxy-thiazolo[5,4-b]pyridin-2-ylcarbamoyl)-ethyl]-benzenesulfonyl}-furan-2-ylmethyl-amino)-acetic acid]",2400 nM
5,"COc1ccc(CN(CCC(=O)O)S(=O)(=O)c2ccc([C@@H](CC3CCCC3)C(=O)Nc3nc4ccc(OC)nc4s3)cc2)cc1 [Example 4-21, 3-[{4-[(R)-2-Cyclopentyl-1-(5-methoxy-thiazolo[5,4-b]pyridin-2-ylcarbamoyl)-ethyl]-benzenesulfonyl}-(4-methoxy-benzyl)-amino]-propionic acid]",920 nM
6,"COCCN(CCC(=O)O)S(=O)(=O)c1ccc(C(CC2CCCC2)C(=O)Nc2nc3cccnc3s2)cc1 (stereo not drawn) [Example 4-41, 3-[{4-[2-Cyclopentyl-1-(thiazolo[5,4-b]pyridin-2-ylcarbamoyl)-ethyl]-benzenesulfonyl}-(2-methoxy-ethyl)-amino]-propionic acid]",1200 nM
7,"COCCN(CCC(=O)O)S(=O)(=O)c1ccc([C@@H](CC2CCCC2)C(=O)Nc2nc3ccc(SC)nc3s2)cc1 [Example 4-42, 3-[{4-[(R)-2-Cyclopentyl-1-(5-methylsulfanyl-thiazolo[5,4-b]pyridin-2-ylcarbamoyl)-ethyl]-benzenesulfonyl}-(2-methoxy-ethyl)-amino]-propionic acid]",230 nM

# Results, then the molecule that gave them:
row,EC50,Structure (SMILES)
1,220 nM,"COCCOc1ccc2nc(NC(=O)[C@H](CC3CCCC3)c3ccc(S(=O)(=O)N(CCOC)CCC(=O)O)cc3)sc2n1 [Example 4-46, 3-[(4-{(R)-2-Cyclopentyl-1-[5-(2-methoxy-ethoxy)-thiazolo[5,4-b]pyridin-2-ylcarbamoyl]-ethyl}-benzenesulfonyl)-(2-methoxy-ethyl)-amino]-propionic acid]"
2,44000 nM,"COCCN(CCC(=O)O)S(=O)(=O)c1ccc([C@H](CC2CCCC2)C(=O)Nc2nc3ccc(Cl)nc3s2)cc1 [Example 4-51, 3-[{4-[(S)-1-(5-Chloro-thiazolo[5,4-b]pyridin-2-ylcarbamoyl)-2-cyclopentyl-ethyl]-benzenesulfonyl}-(2-methoxy-ethyl)-amino]-propionic acid]"
3,6000 nM,"COCCNC(=O)c1ccc2nc(NC(=O)[C@@H](CC3CCCC3)c3ccc(S(=O)(=O)N(CCOC)CCC(=O)O)cc3)sc2n1 [Example 4-60, 3-[(4-{(S)-2-Cyclopentyl-1-[5-(2-methoxy-ethylcarbamoyl)-thiazolo[5,4-b]pyridin-2-ylcarbamoyl]-ethyl}-benzenesulfonyl)-(2-methoxy-ethyl)-amino]-propionic acid]"

# Same assay, conditions: concentration of compound that produces a 50% increase in the activity of GK; read-out: EC50 in the in vitro assay measuring the activation of recombinant GST-GK
row,EC50,Structure (SMILES)
1,~271 nM,"COc1ccc2nc(NC(=O)[C@H](CC3CCCC3)c3ccc(S(=O)(=O)N(CCC(=O)O)Cc4ccccc4)cc3)sc2n1 [Example 1, 3-(Benzyl-{4-[(R)-2-cyclopentyl-1-(5-methoxy-thiazolo[5,4-b]pyridin-2-ylcarbamoyl)-ethyl]-benzenesulfonyl}-amino)-propionic acid]"

# Tested on: DIO mice
# Experiment: glucokinase activation in vivo: oral glucose tolerance test in DIO mice
# Details: oral (po) dosing; different timepoints during the oral glucose tolerance test; statistically significant
# Description: The glucokinase activation in vivo may be determined as follows:
# Male C57BL mice (Jackson Lab, Bar Harbor, Me.) are housed 2 per cage in a reversed light cycle room (light on from 8:00 p.m. to 8:00 a.m.) and given access to food and water ad libitum. To induce DIO, the mice are given a high fat diet (D12492 with 60% caloric intake from fat, Research Diets, New Brunswick, N.J.) from 4 weeks of age and maintained on the diet before being used. The DIO mice are used at 25 weeks of age. On the day of the study, animals are fasted at 7:30 a.m. Body weight measurement and basal blood sample collection are conducted at 10:00 a.m. Plasma glucose values are then determined. Animals are assigned into five groups (n=7/group) with the means of plasma glucose matched among the groups. At 10:30 a.m. animals are dosed with vehicle (water) or compound in vehicle with a dose volume of 5 ml/kg. The test compound is given at 3, 10, 30, or 100 mg/kg. One hour after vehicle or compound dosing, a blood sample (at 0 min) is taken followed by an oral glucose tolerance test (OGTT) at 1 g/kg (20% glucose in water) and a dose volume of 5 ml/kg. […] Plasma glucose concentrations are determined using a glucose meter (Ascensia Elite, Bayer Corp., Mishawaka, Ind.). […] Plasma insulin levels are determined by Luminex assay using Mouse Endocrine Lincoplex kit (Linco Research, Inc., St. Charles, Mo.). […]
row,Structure (SMILES),reductions in glucose
1,"COc1ccc2nc(NC(=O)[C@H](CC3CCCC3)c3ccc(S(=O)(=O)N(CCC(=O)O)Cc4ccccc4)cc3)sc2n1 [Example 1, 3-(Benzyl-{4-[(R)-2-cyclopentyl-1-(5-methoxy-thiazolo[5,4-b]pyridin-2-ylcarbamoyl)-ethyl]-benzenesulfonyl}-amino)-propionic acid]",38-53%
